Measurements: ChEMBL document CHEMBL1201862, “PubChem BioAssay data set” (2004)
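Cells were grown in 96-well plates and exposed to each compound for 48 hours at five concentrations; endpoints were interpolated linearly between bracketing concentrations, or set to the highest concentration if not reached. GI50 = concentration required for 50% inhibition of growth.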 The source made the active and inactive calls. No stated cut-off is given here; in the data, active = GI50 up to about 1.1 µM and inactive = higher.

Tests used:
Experiment in all cases: growth of human tumour cells (NCI), 48 h
MDA-N = system: MDA-N
K562 = system: K562
OVCAR-5 = system: OVCAR-5
CAKI-1 = system: CAKI-1
BT-549 = system: BT-549
SK-MEL-2 = system: SK-MEL-2
SK-MEL-5 = system: SK-MEL-5
A549 = system: A549
ACHN = system: ACHN
Malme-3M = system: Malme-3M
PC-3 = system: PC-3
M14 = system: M14
HOP-92 = system: HOP-92
SNB-19 = system: SNB-19
MOLT-4 = system: MOLT-4
SNB-75 = system: SNB-75
SK-MEL-28 = system: SK-MEL-28
A498 = system: A498
786-0 = system: 786-0

Measured: GI50

O=C1c2ccccc2CCC1C(O)(C(F)(F)F)C(F)(F)F (stereo not drawn)
inactive: MDA-N > 100 µM | K562 > 100 µM | OVCAR-5 > 100 µM | CAKI-1 > 100 µM | BT-549 > 100 µM | SK-MEL-2 27.5 µM | SK-MEL-5 49.2 µM | A549 > 100 µM | ACHN > 100 µM | Malme-3M > 100 µM | PC-3 > 100 µM | M14 > 100 µM | HOP-92 > 100 µM | SNB-19 > 100 µM | MOLT-4 44.6 µM | SNB-75 26.2 µM | SK-MEL-28 > 100 µM | A498 > 100 µM | 786-0 > 100 µM

C/C(=C\c1ccccc1)C(=O)NCc1ccc(C(=O)NCCc2ccccc2)cc1
inactive: MDA-N > 100 µM | K562 > 100 µM | OVCAR-5 > 96.2 µM | CAKI-1 > 93.3 µM | BT-549 28.9 µM | SK-MEL-2 20.9 µM | SK-MEL-5 > 100 µM | A549 > 100 µM | ACHN > 94.6 µM | Malme-3M > 100 µM | PC-3 > 100 µM | M14 > 100 µM | HOP-92 18.4 µM | SNB-19 9.42 µM | MOLT-4 > 100 µM | SNB-75 3.95 µM | SK-MEL-28 > 100 µM | A498 > 66.5 µM | 786-0 20.6 µM

COc1ccc(-n2nnc3c(C#N)c(-c4ccccc4)c(C)n3c2=O)cc1
inactive: MDA-N > 100 µM | K562 18.4 µM | OVCAR-5 > 100 µM | CAKI-1 45.4 µM | BT-549 > 100 µM | SK-MEL-2 28 µM | SK-MEL-5 14.8 µM | A549 > 100 µM | ACHN 30.1 µM | Malme-3M > 100 µM | PC-3 29.2 µM | M14 81.8 µM | HOP-92 23.8 µM | SNB-19 78.7 µM | SNB-75 27.1 µM | SK-MEL-28 > 100 µM | A498 38.1 µM | 786-0 19.1 µM

CC1(C)CCC[C@@]2(C)C1CC[C@@]1(CO1)[C@@H]2/C=C\C(C=O)CC=O (stereo partly drawn)
inactive: MDA-N > 87.9 µM | K562 26.5 µM | OVCAR-5 > 100 µM | CAKI-1 > 100 µM | BT-549 > 100 µM | SK-MEL-2 > 100 µM | SK-MEL-5 > 100 µM | A549 > 100 µM | ACHN > 100 µM | Malme-3M > 100 µM | PC-3 > 70.3 µM | M14 > 100 µM | HOP-92 > 100 µM | SNB-19 > 100 µM | MOLT-4 21.5 µM | SNB-75 > 80.5 µM | SK-MEL-28 > 100 µM | A498 > 100 µM | 786-0 > 75.3 µM

CCNc1ncnc2sc(SCc3ccccc3)nc12
inactive: MDA-N > 100 µM | K562 81.7 µM | OVCAR-5 > 100 µM | CAKI-1 71.6 µM | BT-549 > 100 µM | SK-MEL-2 > 100 µM | SK-MEL-5 25.6 µM | A549 36.5 µM | ACHN 70.6 µM | Malme-3M > 100 µM | PC-3 38.5 µM | M14 > 100 µM | HOP-92 19.6 µM | SNB-19 > 100 µM | MOLT-4 25.9 µM | SNB-75 > 100 µM | SK-MEL-28 > 100 µM | A498 61.9 µM | 786-0 > 100 µM

Cc1nc(C(N)=S)sc1C(=O)CC(=O)C(=O)Nc1ccc(Br)cc1
inactive: MDA-N > 100 µM | K562 > 100 µM | OVCAR-5 > 100 µM | CAKI-1 > 100 µM | BT-549 > 100 µM | SK-MEL-2 > 100 µM | SK-MEL-5 > 100 µM | A549 > 100 µM | ACHN > 100 µM | Malme-3M > 100 µM | PC-3 > 100 µM | M14 > 100 µM | HOP-92 > 100 µM | SNB-75 > 100 µM | SK-MEL-28 > 100 µM | A498 > 100 µM | 786-0 > 100 µM

O=C(CNC(=O)OCc1ccccc1)NCCCCC(NC(=O)OCc1ccccc1)C(=O)O (stereo not drawn)
inactive: MDA-N > 100 µM | K562 > 100 µM | OVCAR-5 > 100 µM | CAKI-1 > 100 µM | BT-549 > 100 µM | SK-MEL-2 > 100 µM | SK-MEL-5 > 100 µM | A549 > 100 µM | ACHN > 100 µM | Malme-3M > 100 µM | PC-3 > 100 µM | M14 > 100 µM | HOP-92 > 100 µM | SNB-19 > 100 µM | MOLT-4 > 100 µM | SNB-75 > 100 µM | SK-MEL-28 > 100 µM | A498 > 100 µM | 786-0 > 100 µM

CN1C(=O)[C@](C)(Cc2ccc(F)cc2)N(C(=O)OC(C)(C)C)[C@@H]1C(C)(C)C
inactive: MDA-N 37.4 µM | K562 25.6 µM | OVCAR-5 > 100 µM | CAKI-1 36.4 µM | BT-549 34.4 µM | SK-MEL-2 31.3 µM | SK-MEL-5 19.6 µM | A549 42.4 µM | ACHN 37.7 µM | Malme-3M > 100 µM | PC-3 30.5 µM | M14 41.6 µM | HOP-92 30.7 µM | SNB-19 > 100 µM | MOLT-4 17.9 µM | SNB-75 29.2 µM | SK-MEL-28 55.3 µM | A498 23.4 µM | 786-0 29.3 µM

CS(=O)(=O)OCCCCOS(=O)(=O)CF
inactive: MDA-N > 100 µM | K562 > 100 µM | OVCAR-5 > 100 µM | CAKI-1 > 72.1 µM | BT-549 > 100 µM | SK-MEL-2 > 100 µM | SK-MEL-5 > 100 µM | A549 > 100 µM | ACHN 52.6 µM | Malme-3M > 46.5 µM | PC-3 > 100 µM | M14 > 100 µM | HOP-92 > 49.5 µM | SNB-19 > 100 µM | MOLT-4 32.9 µM | SNB-75 > 100 µM | SK-MEL-28 > 100 µM | A498 > 100 µM | 786-0 > 100 µM

Fc1c(F)c(C(F)(F)F)c(F)c(F)c1N/N=C\c1c[nH]c2ccccc12
inactive: MDA-N 1.72 µM | K562 2.87 µM | OVCAR-5 3.94 µM | CAKI-1 2.55 µM | BT-549 1.5 µM | SK-MEL-2 2.78 µM | SK-MEL-5 1.82 µM | A549 3.16 µM | ACHN 6.64 µM | Malme-3M 3.92 µM | PC-3 2.13 µM | M14 1.62 µM | HOP-92 3.61 µM | SNB-19 2.86 µM | MOLT-4 2.19 µM | SNB-75 1.27 µM | SK-MEL-28 6.82 µM | A498 3.44 µM | 786-0 3.44 µM

C=C(C(=O)O)[C@@H]1C[C@@H](OC(C)=O)[C@]2(C)CC/C=C(\C)CCC[C@H](C)[C@H](O)[C@@H]1O2
inactive: MDA-N 24.5 µM | K562 75.2 µM | OVCAR-5 > 100 µM | CAKI-1 71 µM | BT-549 25.1 µM | SK-MEL-2 71.8 µM | SK-MEL-5 30.2 µM | A549 43 µM | ACHN 55.7 µM | Malme-3M 61.7 µM | PC-3 39.7 µM | M14 28.2 µM | HOP-92 46 µM | MOLT-4 24.7 µM | SNB-75 74.8 µM | SK-MEL-28 77.4 µM | A498 > 100 µM | 786-0 44.5 µM

CCCCCCc1ccc(C(=O)NO)cc1
inactive: MDA-N 45.6 µM | K562 24.5 µM | OVCAR-5 75 µM | CAKI-1 28.1 µM | BT-549 28.6 µM | SK-MEL-2 44.9 µM | SK-MEL-5 47.1 µM | A549 33.8 µM | ACHN 22.9 µM | PC-3 31.8 µM | M14 35.1 µM | HOP-92 48 µM | SNB-19 45.3 µM | MOLT-4 11.7 µM | SNB-75 42.9 µM | SK-MEL-28 56.5 µM | A498 29.2 µM | 786-0 13.7 µM

COC(=O)C1[C@H](C(=O)OC)C1(Br)CBr (stereo partly drawn)
inactive: MDA-N > 100 µM | K562 > 100 µM | OVCAR-5 > 100 µM | CAKI-1 > 100 µM | BT-549 > 100 µM | SK-MEL-2 > 100 µM | SK-MEL-5 > 100 µM | A549 > 100 µM | ACHN > 100 µM | PC-3 > 100 µM | M14 > 100 µM | HOP-92 > 100 µM | SNB-19 > 100 µM | MOLT-4 40.1 µM | SNB-75 > 100 µM | SK-MEL-28 > 100 µM | A498 > 100 µM | 786-0 > 100 µM

Nc1ncnc2c1nc(-c1ccccc1)n2C1OC(CO)C(O)C1O (stereo not drawn)
inactive: MDA-N > 100 µM | K562 > 100 µM | OVCAR-5 > 100 µM | CAKI-1 > 100 µM | BT-549 > 100 µM | SK-MEL-2 > 100 µM | SK-MEL-5 > 100 µM | A549 > 100 µM | ACHN > 100 µM | PC-3 > 100 µM | M14 > 100 µM | HOP-92 > 100 µM | SNB-19 > 100 µM | MOLT-4 > 100 µM | SNB-75 > 100 µM | SK-MEL-28 > 100 µM | A498 > 100 µM | 786-0 > 100 µM

COc1ccc(-c2cc(=O)c3ccc(O)cc3o2)cc1OC
inactive: MDA-N 47.6 µM | K562 30 µM | OVCAR-5 > 100 µM | CAKI-1 25.7 µM | BT-549 46.5 µM | SK-MEL-2 > 100 µM | SK-MEL-5 15.2 µM | A549 38.5 µM | ACHN 48.9 µM | Malme-3M 67.1 µM | PC-3 32.3 µM | M14 72.8 µM | HOP-92 56.6 µM | SNB-19 35.6 µM | MOLT-4 25.6 µM | SNB-75 10.2 µM | SK-MEL-28 71.9 µM | A498 34 µM | 786-0 56.9 µM
